Experimental data reported in patent US9440966B2, “Compounds for treatment of metabolic syndrome” (SJT MOLECULAR RESEARCH, S.L., priority 2011, dated 2016).
“Also recorded” adds a separate entry of the source. Counter-ions that a name gives are not always drawn.

Tests used:
[1] = test system: normoglycemic rats; experiment: Oral glucose tolerance test in normoglycemic rats (Examples 27, 28); assay type: in vivo, Male Wistar rats; conditions: vs control group
Experimental: (§1) Male Wistar rats were utilized provided by Mato Grosso do Sul's Federal University's Biotherium. Until the experiments were carried out, the animals have had free access to feed and water. The room temperature was kept at 22±2° C. and the light/dark cycle was of 12 hours.
The glucose tolerance test is a reference method for the diagnosis of diabetes or glucose intolerance (5).
Distinct rat groups were orally treated, once a day, with 3-(carbohydrazyl-N′-phenylsubstituted)-1-benzosubstituted-β-carbolinic-3-carbohydrazide (compound 7a or ANIS-BZ) at doses: 0.5, 1 or 5 mg/kg or vehicle (control) for 3 days. Similarly, another rat group received metformin (reference drug used for lowering glucose serum levels) in a 300 mg/kg dose, orally, once a day for 3 days. The oral glucose tolerance test was carried out by administering of a glucose solution (2 g/kg body mass). Glycemia was determined at zero time (before oral administering) and at 60 minutes after the glucose overload.
Distinct groups of rats were treated orally, once a day, with N(-ethylamine)-1-benzosubstituted-β-carboline-3-carboxamide (compound 4a or ANIS-NH2) at doses: 0.5, 1 or 5 mg/kg, or vehicle for 3 days. Similarly, another group of rats received metformin in a 300 mg/kg dose orally for 3 days once a day. The oral glucose tolerance test was done under the administration of a glucose solution (2 g/kg body mass). Glycemia will be determined at the zero (before oral administration) time and 60 minutes after glucose overload.

[2] = test system: SHR hypertensive rats; experiment: Plasma cholesterol levels test in SHR hypertensive rats; assay type: in vivo, Male SHR; conditions: 25 days of treatment (15 mg/Kg) oral, effect more pronounced for 5a and 7a
Experimental: (§2) Distinct rat groups were orally treated, once a day, with 5 mg/kg of compounds 4a or 5a or 6a during the first 4 days, 10 mg/kg during the next 4 days and 15 mg/kg until the end of the treatment period or vehicle (control) for the same days. Similarly, another rat group received metformin (MET) (reference drug used for lowering glucose serum levels) in a 300 mg/kg dose, orally, from day 1 to the end of the treatment. Plasma cholesterol levels were measured in triplicate 12 hours after drug administration by the cholesterol oxidase/peroxidase method (BioSystems S.A, Barcelona, Spain). Blood samples were obtained by femoral vein punction. This method was chosen because of its noninvasive character, enabling daily measurements with the same rats throughout the entire treatment.
Male SHR were provided by Charles River Laboratories (USA). Until the experiments were carried out, the animals have had free access to feed and water. The room temperature was kept at 22±2° C. and the light/dark cycle was of 12 hours. All procedures were submitted to the Animal Experimentation Ethics Committee.
as §2, with “metformin” for “metformin (MET)”, “Blood pressure was” for “Plasma cholesterol levels were”, “4” for “12”, “administration in warmed warmed, restrained, conscious rats” for “administration”, “tail-cuff” for “cholesterol oxidase/peroxidase”, “with a computerized oscillometric system recorder (Nyprem, Cibertec).” for “(BioSystems S.A, Barcelona, Spain). Blood samples were obtained by femoral vein punction.”

[3] = test system: Drosophila melanogaster (Oregon-R strain); experiment: Toxicology study: larva-to-adult viability and development time
Excerpt: The purpose of this study was to test and compare the potential toxic effects of compounds 5a, 6a and 7a on the larva-to-adult viability and development time in a Drosophila melanogaster (Oregon-R) flies. These studies have a relevant predictive role with the aim to anticipate possible adverse toxicological effects that may happen during preclinical studies with animal, preferably mammals. In addition, the data provided are highly quantitative.
Drosophila melanogaster (Oregon-R) flies were obtained by the University of the Balearic Islands (Spain). […] The larvae were seeded on standard food supplemented with the appropriate dose of compounds tested. Each compound was tested at 1, 10, 100, 1000 and 2000 μg/ml dissolved in standard food.
Fly adults were transferred from the serial transfer system to bottles with fresh food for 24 h. Adults 5 days old were placed on egg collecting devices (layers) containing a mixture of agar, water, acetic acid, and ethyl alcohol, with a drop of active yeast on it. Every 2 h., the layer glasses were changed, in this way, the eggs of a glass have similar age, with a maximum difference of 2 h. among them. The glasses of the layers were kept at 25° C. for at least 22 h. in Petri dishes until larvae hatched. Fifty larvae were picked with a lancet under a stereoscopic microscope and were seeded into 10×2 cm vials with 5 ml food. Vials were supplemented with 4a, 5a and 7a at 1, 10 and 100 μg/ml. As positive control we used cupric acetate (toxic) at 350 μg/ml.
The number of adult flies which emerged from each vial was counted daily until the exhaustion of the culture. The parameters studied were the larvae-to-adult viability (V) and development time.
Viability is expressed as V=NA/NL, where NL is the input number of larvae ([…] in our case) and NA the output number of adults emerging from these NL larvae. Development time was measured in days by the formula DT=ΣNidi/ΣNi where Ni is the number of flies emerging on the day di after the larvae were placed in the medium.
The data are expressed as the mean±SEM values from 3 independent experiments involving triplicate vials at the number of flies indicated.

[4] = test system: female Swiss mice; experiment: Acute oral toxicology study in a mice model; assay type: in vivo; conditions: oral 2000 mg/kg single dose, observation for 14 days
Experimental: The experiments were conducted using female Swiss mice (20-30 g), housed under a 12-h light-dark cycle, with controlled humidity (60-80%), and temperature (22±1° C.). Food and water were freely available to the mice.
Female mice (n=6) were orally (2000 mg/kg) administered with a single dose of 4a, 5a, and 7a for the observation of acute signs of toxicity until 14 days. […] The observations comprised the behavior and manifestations of the toxic symptoms, and were carried out according to the Guidelines of the Organization for Economic Cooperation and Development (OECD, 2008).
All compounds were dissolved in sterile saline and were administered by oral gavage to mice based in the weight, for example 20 g received 20 μL.
The data are expressed as mean±S.E.M. of experiments. Statistical significance was determined through one-way analysis of variances (ANOVA), followed by either Newman-Keuls test. A p<0.05 was considered statistically significant. Graphs were drawn and statistical analysis was carried out using GraphPad Prism version 5.00 for Windows (GraphPad Software, San Diego, Calif., USA).

[5] = test system: normoglycemic rats; experiment: Oral glucose tolerance test in normoglycemic rats (Examples 36, 37); assay type: in vivo, Male Wistar rats; conditions: 10 mg/kg orally, single dose per day
Experimental: as §1, with “rats (200-300 g)” for “rats”, “C. with controlled humidity (60-80%)” for “C.”
The glucose tolerance test was evaluated as described by Al-Awaki et al (6).
Rats were randomly divided into […] groups of four animals that were control group that received only a solution of saline, compound 23b group (10 mg/kg), compound 21a group (10 mg/kg) and metformin 300 mg/kg group. Respective treatments were made orally and daily for five days.
(§3) On day 1, 3, and 5, different groups of rats were fasted overnight (at least 12 h) prior to the test, but with given water ad libitum. The oral glucose tolerance test was carried out by administering of a glucose solution (2 g/kg body weight) according to Al-Awadi et al (6). Glycemia was determined in blood samples collected from the tail vein at −30 minutes (just before the administration of the oral extract) time 0 (prior to the glucose overload) and at 60 minutes after the glucose overload. Serum glucose concentrations were measured by the glucose oxidase method (7) using commercial kit (Accuchek-performa (Roche)) according to the manufacture's instructions.
as §1, with “rats (200-300 g)” for “rats”, “C. with controlled humidity (60-80%)” for “C.”, “hours. All procedures were submitted to the Animal Experimentation Ethics Committee.” for “hours.”
The compounds 21b, 23a and 23d were diluted firstly in 20 μl of ethanol and after in 980 μl de saline. Compounds 21e, 23e and 26b were dissolved in sterile saline and were administered by oral gavage to rats based in the weight, for example 200 g received 200 μL.
54 rats were randomly divided into […] groups of five-eight animals that were control group (n=8) that received only a solution of vehicle, compound 21b group (n=5) (10 mg/kg), compound 21e group (n=5) (10 mg/kg), compound 23e group (n=5) (10 mg/kg), compound 23a group (n=5) (10 mg/kg), compound 23d group (n=5) (10 mg/kg), compound 26b group (n=5) (10 mg/kg) and metformin (n=6) 300 mg/kg group. Respective treatments were made orally and daily for five days.
as §3, with “manufactures's” for “manufacture's”

[6] = fifth day, in relation to control group

COc1ccc(-c2nc(C(=O)N/N=C/c3ccccc3)cc3c2[nH]c2ccccc23)cc1 [Compound 7a, 3-(carbohydrazyl-N′-phenylsubstitute)-1-benzosubstitute-β-carbolinic-3-carbohydrazide]
glycemic levels of animals that received an oral glucose overload ([1]; after 3 days, 0.5 mg/kg oral once a day): only the 1 and 5 mg/kg doses reduced statistically significant the glycemic levels | glycemic levels of animals that received an oral glucose overload ([1]; after 3 days, 1 mg/kg oral once a day): reduced statistically significant the glycemic levels | glycemic levels of animals that received an oral glucose overload ([1]; after 3 days, 5 mg/kg oral once a day, 5 mg/kg): reduces the glycemic levels; also recorded: reduced statistically significant the glycemic levels | glycemic levels of animals that received an oral glucose overload ([1]; first day, 5 mg/kg oral, 60 min after glucose 2 g/kg): reduces the glycemic levels | plasma cholesterol levels [2]: inhibition of plasma cholesterol levels | larvae-to-adult viability and development time ([3]; in vivo): not affected | mortality or behavioral disorders (acute signs of toxicity) [4]: did not produce mortality or any behavioral disorders

Cl.NCCNC(=O)c1cc2c([nH]c3ccccc32)c(-c2ccc(Cl)cc2)n1 [Compound 21b, N-(2-aminoethyl)-1-(4-chlorophenyl)-9H-pyrido[3,4-b]indole-3-carboxamide]
glucose levels in oral glucose tolerance test [5, 6]: reduced the glucose levels

COc1ccc(-c2nc(C(=O)N3CCOCC3)cc3c2[nH]c2ccccc23)cc1.Cl [Compound 23a, [1-(4-methoxyphenyl)-9H-pyrido[3,4-b]indol-3-yl]-4-morpholinyl-Methanone Hydrochloride]
glucose levels in oral glucose tolerance test ([5]; first day): significant reduction in glucose levels

COc1ccc(-c2nc(C(=O)NCCN(C)C)cc3c2[nH]c2ccccc23)cc1 [Compound 23b, N-(2-dimethylaminoethyl)-1-(4-methoxyphenyl)-9H-pyrido[3,4-b]indole-3-carboxamide hydrochloride]
glucose levels in oral glucose tolerance test [5, 6]: reduced the glucose levels | glucose levels in oral glucose tolerance test ([5]; third day): significant reduction in glucose levels

COc1ccc(-c2nc(C(=O)NCCO)cc3c2[nH]c2ccccc23)cc1.Cl [Compound 23d, N-(2-hydroxyethyl)-1-(4-methoxyphenyl)-9H-pyrido[3,4-b]indole-3-carboxamide hydrochloride]
glucose levels in oral glucose tolerance test [5, 6]: reduced the glucose levels

COc1ccc(-c2nc(C(=O)NCCCCN)cc3c2[nH]c2ccccc23)cc1.Cl [Compound 23e, N-(4-aminobutyl)-1-(4-methoxyphenyl)-9H-pyrido[3,4-b]indole-3-carboxamide hydrochloride]
glucose levels in oral glucose tolerance test [5, 6]: reduced the glucose levels | glucose levels in oral glucose tolerance test ([5]; first day): significant reduction in glucose levels | glucose levels in oral glucose tolerance test ([5]; third day): significant reduction in glucose levels

CC(=O)[O-].CC(=O)[O-].[Cu+2] [Cupric acetate, cupric acetate, reference compound]
Larva-to-adult viability (% emerged adult flies) ([3]; 350 μg/ml, positive control (toxic)): 0%
